According to patent US11623919B2, “Heterocyclic P2X7 antagonists” (AXXAM S.P.A., priority 2017, dated 2023):

Assays:
Assay in all cases: Screen Quest Fluo-8 No Wash Calcium Assay (Bz-ATP evoked Ca2+ influx, FLIPR)
Format in all cases: cell-based
P2X7 receptor [1] = molecular target: T1, P2X7 receptor (Mus musculus, UniProt Q9Z1M0); conditions: mP2X7; HEK-293 cells stably transfected with P2X7 receptor, Bz-ATP at EC80, Fluo-8 NW; potency ranges A-D
T1 construct: mP2X7 (IC50; nM); other: mP2X7; HEK-293 cells stably transfected with P2X7 receptor, Bz-ATP at EC80, Fluo-8 NW; potency
T1 sequence (Q9Z1M0 1-595): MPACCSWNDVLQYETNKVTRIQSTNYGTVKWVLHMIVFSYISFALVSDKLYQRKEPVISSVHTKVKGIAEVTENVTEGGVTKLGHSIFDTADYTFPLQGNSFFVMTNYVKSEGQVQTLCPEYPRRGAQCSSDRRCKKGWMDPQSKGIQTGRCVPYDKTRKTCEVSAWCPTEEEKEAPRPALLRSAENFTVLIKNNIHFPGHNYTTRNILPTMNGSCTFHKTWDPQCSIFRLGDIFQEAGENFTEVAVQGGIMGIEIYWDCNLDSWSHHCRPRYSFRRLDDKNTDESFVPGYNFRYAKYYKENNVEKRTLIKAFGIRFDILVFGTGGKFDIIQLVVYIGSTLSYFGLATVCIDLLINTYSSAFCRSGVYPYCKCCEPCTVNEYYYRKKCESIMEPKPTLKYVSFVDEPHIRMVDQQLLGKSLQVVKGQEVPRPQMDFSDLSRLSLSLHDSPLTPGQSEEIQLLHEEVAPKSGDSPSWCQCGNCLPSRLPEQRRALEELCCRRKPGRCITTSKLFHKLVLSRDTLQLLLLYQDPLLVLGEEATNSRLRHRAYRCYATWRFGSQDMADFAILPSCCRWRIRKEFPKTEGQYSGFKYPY
In short: (§1)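 HEK-293 cells stably expressing P2X7 were loaded with Fluo-8 NW for 1 h at RT, then given compound, and 5 min later Bz-ATP at EC80. Fluorescence was read by FLIPR in low divalent cation buffer (0.3 mM Ca2+, 0 mM Mg2+). IC50 came from percent inhibition relative to reference antagonist A438079.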

P2X7 receptor [2] = molecular target: T2, P2X7 receptor (Rattus norvegicus, UniProt Q64663); conditions: rP2X7; HEK-293 cells stably transfected with P2X7 receptor, Bz-ATP at EC80, Fluo-8 NW; potency ranges A-D
T2 construct: rP2X7 (IC50; nM); other: rP2X7; HEK-293 cells stably transfected with P2X7 receptor, Bz-ATP at EC80, Fluo-8 NW; potency
T2 sequence (Q64663 1-595): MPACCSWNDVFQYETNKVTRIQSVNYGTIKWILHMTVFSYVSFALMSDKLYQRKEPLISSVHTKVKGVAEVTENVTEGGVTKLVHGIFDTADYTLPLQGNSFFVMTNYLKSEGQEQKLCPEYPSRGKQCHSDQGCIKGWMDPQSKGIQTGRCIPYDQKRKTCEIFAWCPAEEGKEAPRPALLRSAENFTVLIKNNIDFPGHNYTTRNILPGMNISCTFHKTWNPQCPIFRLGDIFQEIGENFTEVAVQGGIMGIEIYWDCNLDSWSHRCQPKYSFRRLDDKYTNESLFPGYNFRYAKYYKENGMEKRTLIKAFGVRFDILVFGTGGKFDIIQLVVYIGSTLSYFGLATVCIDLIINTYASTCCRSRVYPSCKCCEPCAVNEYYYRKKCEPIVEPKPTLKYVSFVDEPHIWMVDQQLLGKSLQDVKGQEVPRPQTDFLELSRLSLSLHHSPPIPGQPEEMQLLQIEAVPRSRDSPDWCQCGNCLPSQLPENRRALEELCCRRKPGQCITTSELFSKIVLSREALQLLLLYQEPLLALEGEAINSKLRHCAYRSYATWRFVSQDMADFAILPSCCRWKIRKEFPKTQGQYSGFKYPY
In short: as §1

P2X7 receptor [3] = molecular target: T3, P2X7 receptor (Homo sapiens, UniProt Q99572); design: hP2X7 (IC50; nM); other: hP2X7; HEK-293 cells stably transfected with P2X7 receptor, Bz-ATP at EC80, Fluo-8 NW; potency; conditions: hP2X7; HEK-293 cells stably transfected with P2X7 receptor, Bz-ATP at EC80, Fluo-8 NW; potency ranges A-D
T3 sequence (Q99572 1-595): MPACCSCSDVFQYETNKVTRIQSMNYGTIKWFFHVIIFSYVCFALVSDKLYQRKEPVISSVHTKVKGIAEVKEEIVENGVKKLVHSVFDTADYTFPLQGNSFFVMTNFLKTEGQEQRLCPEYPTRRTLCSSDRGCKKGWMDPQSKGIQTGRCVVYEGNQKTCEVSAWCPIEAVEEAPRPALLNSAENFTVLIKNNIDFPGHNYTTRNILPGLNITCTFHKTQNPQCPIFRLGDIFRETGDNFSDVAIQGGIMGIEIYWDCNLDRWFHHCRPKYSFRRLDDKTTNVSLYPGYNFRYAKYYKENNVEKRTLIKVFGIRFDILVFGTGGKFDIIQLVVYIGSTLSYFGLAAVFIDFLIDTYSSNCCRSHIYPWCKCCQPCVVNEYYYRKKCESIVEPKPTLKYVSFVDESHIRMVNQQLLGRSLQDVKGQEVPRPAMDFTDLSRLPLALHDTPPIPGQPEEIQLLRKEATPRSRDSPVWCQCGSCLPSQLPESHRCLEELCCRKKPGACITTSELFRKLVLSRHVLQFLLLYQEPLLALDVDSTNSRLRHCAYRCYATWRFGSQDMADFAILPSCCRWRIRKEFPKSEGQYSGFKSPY
In short: as §1

O=c1onc(Cc2c(F)cccc2Cl)n1CC1CCC(F)(F)C1 (racemic) [Example 128, 3-[(2-chloro-6-fluorophenyl)methyl]-4-[(3,3-difluorocyclopentyl)methyl]-4,5-dihydro-1,2,4-oxadiazol-5-one]
IC50 (P2X7 receptor [1]): 200 to 1000 nM
IC50 (P2X7 receptor [2]): < 200 nM
IC50 (P2X7 receptor [3]): < 200 nM

O=c1onc(Cc2c(F)cccc2Cl)n1CC1CCC(F)(F)C1 (single isomer, unassigned) [Example 149, 3-(2-chloro-6-fluorobenzyl)-4-[(3,3-difluorocyclopentyl)methyl]-1,2,4-oxadiazol-5(4H)-one]
IC50 (P2X7 receptor [1]): 200 to 1000 nM
IC50 (P2X7 receptor [2]): < 200 nM
IC50 (P2X7 receptor [3]): < 200 nM

O=c1onc(Cc2ccc(F)cc2)n1Cc1c(F)cccc1Cl [Example 1, 4-[(2-chloro-6-fluorophenyl)methyl]-3-[(4-fluorophenyl)methyl]-4,5-dihydro-1,2,4-oxadiazol-5-one]
IC50 (P2X7 receptor [1]): 1000 to 10000 nM
IC50 (P2X7 receptor [2]): 200 to 1000 nM
IC50 (P2X7 receptor [3]): 200 to 1000 nM

Cc1cc(F)ccc1Cn1c(Cc2c(F)cccc2Cl)noc1=O [Example 25, 3-[(2-chloro-6-fluorophenyl)methyl]-4-[(4-fluoro-2-methylphenyl)methyl]-4,5-dihydro-1,2,4-oxadiazol-5-one]
IC50 (P2X7 receptor [1]): 200 to 1000 nM
IC50 (P2X7 receptor [2]): 200 to 1000 nM
IC50 (P2X7 receptor [3]): < 200 nM

O=c1onc(Cc2c(F)cccc2Cl)n1Cc1cccc(F)c1 [Example 26, 3-[(2-chloro-6-fluorophenyl)methyl]-4-[(3-fluorophenyl)methyl]-4,5-dihydro-1,2,4-oxadiazol-5-one]
IC50 (P2X7 receptor [1]): 200 to 1000 nM
IC50 (P2X7 receptor [2]): < 200 nM
IC50 (P2X7 receptor [3]): 200 to 1000 nM

CC(c1ccc(F)cc1)n1c(Cc2c(F)cccc2Cl)noc1=O (stereo not drawn) [Example 48, 3-[(2-chloro-6-fluorophenyl)methyl]-4-[1-(4-fluorophenyl)ethyl]-4,5-dihydro-1,2,4-oxadiazol-5-one]
IC50 (P2X7 receptor [1]): 200 to 1000 nM
IC50 (P2X7 receptor [2]): 200 to 1000 nM
IC50 (P2X7 receptor [3]): 200 to 1000 nM

O=c1onc(Cc2c(F)cccc2Cl)n1Cc1ccc(F)cc1 [Example 55, 3-[(2-chloro-6-fluorophenyl)methyl]-4-[(4-fluorophenyl)methyl]-4,5-dihydro-1,2,4-oxadiazol-5-one]
IC50 (P2X7 receptor [1]): 200 to 1000 nM
IC50 (P2X7 receptor [2]): 200 to 1000 nM
IC50 (P2X7 receptor [3]): 200 to 1000 nM

O=c1onc(Cc2c(F)cccc2Cl)n1Cc1ccc(F)cc1Cl [Example 60, 4-[(2-chloro-4-fluorophenyl)methyl]-3-[(2-chloro-6-fluorophenyl)methyl]-4,5-dihydro-1,2,4-oxadiazol-5-one]
IC50 (P2X7 receptor [1]): 1000 to 10000 nM
IC50 (P2X7 receptor [2]): 1000 to 10000 nM
IC50 (P2X7 receptor [3]): 200 to 1000 nM

O=c1onc(Cc2c(F)cccc2Cl)n1Cc1ccc(F)cc1F [Example 61, 3-[(2-chloro-6-fluorophenyl)methyl]-4-[(2,4-difluorophenyl)methyl]-4,5-dihydro-1,2,4-oxadiazol-5-one]
IC50 (P2X7 receptor [1]): 1000 to 10000 nM
IC50 (P2X7 receptor [2]): 200 to 1000 nM
IC50 (P2X7 receptor [3]): 200 to 1000 nM

O=c1onc(Cc2c(F)cccc2Cl)n1Cc1ccc(Cl)cc1 [Example 65, 3-[(2-chloro-6-fluorophenyl)methyl]-4-[(4-chlorophenyl)methyl]-4,5-dihydro-1,2,4-oxadiazol-5-one]
IC50 (P2X7 receptor [1]): 1000 to 10000 nM
IC50 (P2X7 receptor [2]): 200 to 1000 nM
IC50 (P2X7 receptor [3]): 200 to 1000 nM

O=c1onc(Cc2c(F)cccc2Cl)n1Cc1ccc(C(F)(F)F)o1 [Example 66, 3-[(2-chloro-6-fluorophenyl)methyl]-4-{[5-(trifluoromethyl)furan-2-yl]methyl}-4,5-dihydro-1,2,4-oxadiazol-5-one]
IC50 (P2X7 receptor [1]): 1000 to 10000 nM
IC50 (P2X7 receptor [2]): 200 to 1000 nM
IC50 (P2X7 receptor [3]): 200 to 1000 nM

O=c1onc(Cc2cccc(Cl)c2Cl)n1Cc1ccc(F)cc1 [Example 71, 3-[(2,3-dichlorophenyl)methyl]-4-[(4-fluorophenyl)methyl]-4,5-dihydro-1,2,4-oxadiazol-5-one]
IC50 (P2X7 receptor [1]): 1000 to 10000 nM
IC50 (P2X7 receptor [2]): 1000 to 10000 nM
IC50 (P2X7 receptor [3]): 200 to 1000 nM

O=c1onc(Cc2ccc(F)cc2Cl)n1Cc1ccc(F)cc1 [Example 73, 3-[(2-chloro-4-fluorophenyl)methyl]-4-[(4-fluorophenyl)methyl]-4,5-dihydro-1,2,4-oxadiazol-5-one]
IC50 (P2X7 receptor [1]): 1000 to 10000 nM
IC50 (P2X7 receptor [2]): 200 to 1000 nM
IC50 (P2X7 receptor [3]): 200 to 1000 nM

O=c1onc(Cc2ccccc2Cl)n1Cc1ccc(F)cc1 [Example 76, 3-[(2-chlorophenyl)methyl]-4-[(4-fluorophenyl)methyl]-4,5-dihydro-1,2,4-oxadiazol-5-one]
IC50 (P2X7 receptor [1]): 1000 to 10000 nM
IC50 (P2X7 receptor [2]): 200 to 1000 nM
IC50 (P2X7 receptor [3]): 200 to 1000 nM

O=c1onc(Cc2cccc(F)c2)n1Cc1c(F)cccc1Cl [Example 81, 4-[(2-chloro-6-fluorophenyl)methyl]-3-[(3-fluorophenyl)methyl]-4,5-dihydro-1,2,4-oxadiazol-5-one]
IC50 (P2X7 receptor [1]): 1000 to 10000 nM
IC50 (P2X7 receptor [2]): 200 to 1000 nM
IC50 (P2X7 receptor [3]): 200 to 1000 nM

O=c1onc(Cc2c(F)cccc2Cl)n1CC1CCCCC1 [Example 82, 3-[(2-chloro-6-fluorophenyl)methyl]-4-(cyclohexylmethyl)-4,5-dihydro-1,2,4-oxadiazol-5-one]
IC50 (P2X7 receptor [1]): < 200 nM
IC50 (P2X7 receptor [2]): < 200 nM
IC50 (P2X7 receptor [3]): < 200 nM

O=c1onc(Cc2c(F)cccc2Cl)n1CC1CCC(F)(F)CC1 [Example 84, 3-[(2-chloro-6-fluorophenyl)methyl]-4-[(4,4-difluorocyclohexyl)methyl]-4,5-dihydro-1,2,4-oxadiazol-5-one]
IC50 (P2X7 receptor [1]): < 200 nM
IC50 (P2X7 receptor [2]): < 200 nM
IC50 (P2X7 receptor [3]): < 200 nM

O=c1onc(Cc2c(F)cccc2Cl)n1CC1CCCC1 [Example 85, 3-[(2-chloro-6-fluorophenyl)methyl]-4-(cyclopentylmethyl)-4,5-dihydro-1,2,4-oxadiazol-5-one]
IC50 (P2X7 receptor [1]): 200 to 1000 nM
IC50 (P2X7 receptor [2]): < 200 nM
IC50 (P2X7 receptor [3]): < 200 nM

CC1(C)CCC(Cn2c(Cc3c(F)cccc3Cl)noc2=O)CC1 [Example 86, 3-[(2-chloro-6-fluorophenyl)methyl]-4-[(4,4-dimethylcyclohexyl)methyl]-4,5-dihydro-1,2,4-oxadiazol-5-one]
IC50 (P2X7 receptor [1]): 200 to 1000 nM
IC50 (P2X7 receptor [2]): 200 to 1000 nM
IC50 (P2X7 receptor [3]): 200 to 1000 nM

CC1CCCCC1Cn1c(Cc2c(F)cccc2Cl)noc1=O (stereo not drawn) [Example 87, 3-[(2-chloro-6-fluorophenyl)methyl]-4-[(2-methylcyclohexyl)methyl]-4,5-dihydro-1,2,4-oxadiazol-5-one]
IC50 (P2X7 receptor [1]): 200 to 1000 nM
IC50 (P2X7 receptor [2]): < 200 nM
IC50 (P2X7 receptor [3]): < 200 nM

O=c1onc(Cc2c(F)cccc2Cl)n1CC1CC2CCC1C2 (stereo not drawn) [Example 88, 4-{bicyclo[2.2.1]heptan-2-ylmethyl}-3-[(2-chloro-6-fluorophenyl)methyl]-4,5-dihydro-1,2,4-oxadiazol-5-one]
IC50 (P2X7 receptor [1]): 200 to 1000 nM
IC50 (P2X7 receptor [2]): < 200 nM
IC50 (P2X7 receptor [3]): < 200 nM
